In the supplement of paper PMC10307832:

Legend:
Test in all cases: relative viability (nuclei count vs DMSO), 5 days (fraction); higher = more cells survive
FH535 + Trametinib = compound: CC1=C(C=CC(=C1)[N+](=O)[O-])NS(=O)(=O)C2=C(C=CC(=C2)Cl)Cl [FH535] + CC(=O)Nc1cccc(-n2c(=O)n(C3CC3)c(=O)c3c(Nc4ccc(I)cc4F)n(C)c(=O)c(C)c32)c1 [Trametinib] (partner 0.02 µM)
In short: (§1)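 The day after seeding in 1536-well plates, lung cancer cell lines were treated by pin tool with a single drug, or with a fixed anchor-drug dose together with five library-drug doses (not always all listed) in √10 steps. After 5 days, a combined fix-and-stain solution (final 0.05% Triton X-100, 1% formaldehyde, 1 ug/ml Hoechst) was added. Nuclei counted on 4× images gave relative viability as treated counts over vehicle counts, reported as the median of duplicate plates.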

FH535 + Pictilisib = compound: CC1=C(C=CC(=C1)[N+](=O)[O-])NS(=O)(=O)C2=C(C=CC(=C2)Cl)Cl [FH535] + CS(=O)(=O)N1CCN(Cc2cc3nc(-c4cccc5[nH]ncc45)nc(N4CCOCC4)c3s2)CC1 [Pictilisib] (partner 1 µM)
In short: as §1

FH535 + Crizotinib = compound: CC1=C(C=CC(=C1)[N+](=O)[O-])NS(=O)(=O)C2=C(C=CC(=C2)Cl)Cl [FH535] + C[C@@H](Oc1cc(-c2cnn(C3CCNCC3)c2)cnc1N)c1c(Cl)ccc(F)c1Cl [Crizotinib] (partner 1 µM)
In short: as §1

FH535 + AZD7762 = compound: CC1=C(C=CC(=C1)[N+](=O)[O-])NS(=O)(=O)C2=C(C=CC(=C2)Cl)Cl [FH535] + NC(=O)Nc1cc(-c2cccc(F)c2)sc1C(=O)N[C@H]1CCCNC1 [AZD7762] (partner 0.2 µM)
In short: as §1

FH535 + Olaparib = compound: CC1=C(C=CC(=C1)[N+](=O)[O-])NS(=O)(=O)C2=C(C=CC(=C2)Cl)Cl [FH535] + O=C(c1cc(Cc2n[nH]c(=O)c3ccccc23)ccc1F)N1CCN(C(=O)C2CC2)CC1 [Olaparib] (partner 8 µM)
In short: as §1

Cell Line | relative viability (FH535 + Trametinib; first compound 0.04 µM) | relative viability (FH535 + Trametinib; first compound 0.1265 µM) | relative viability (FH535 + Trametinib; first compound 0.4 µM) | relative viability (FH535 + Trametinib; first compound 1.265 µM) | relative viability (FH535 + Pictilisib; first compound 0.04 µM) | relative viability (FH535 + Pictilisib; first compound 0.1265 µM) | relative viability (FH535 + Pictilisib; first compound 0.4 µM) | relative viability (FH535 + Pictilisib; first compound 1.265 µM) | relative viability (FH535 + Crizotinib; first compound 0.04 µM) | relative viability (FH535 + Crizotinib; first compound 0.1265 µM) | relative viability (FH535 + Crizotinib; first compound 0.4 µM) | relative viability (FH535 + Crizotinib; first compound 1.265 µM) | relative viability (FH535 + AZD7762; first compound 0.04 µM) | relative viability (FH535 + AZD7762; first compound 0.1265 µM) | relative viability (FH535 + AZD7762; first compound 0.4 µM) | relative viability (FH535 + AZD7762; first compound 1.265 µM) | relative viability (FH535 + Olaparib; first compound 0.04 µM) | relative viability (FH535 + Olaparib; first compound 0.1265 µM) | relative viability (FH535 + Olaparib; first compound 0.4 µM) | relative viability (FH535 + Olaparib; first compound 1.265 µM)
EMC-BAC-2 | 0.804 | 0.9 | 0.869 | 0.892 | 0.506 | 0.507 | 0.544 | 0.526 | 0.766 | 0.799 | 0.739 | 0.677 | 0.828 | 1.06 | 1.04 | 0.985 | 0.445 | 0.467 | 0.46 | 0.442
NCI-H727 | 0.402 | 0.362 | 0.365 | 0.387 | 0.482 | 0.315 | 0.401 | 0.366 | 0.917 | 0.848 | 0.823 | 0.783 | 0.409 | 0.59 | 0.595 | 0.59 | 0.746 | 0.675 | 0.527 | 0.549
LU99A | 0.475 | 0.572 | 0.576 | 0.338 | 0.291 | 0.324 | 0.335 | 0.295 | 0.508 | 0.598 | 0.604 | 0.584 | 0.205 | 0.353 | 0.354 | 0.328 | 0.246 | 0.28 | 0.274 | 0.283
LK-2 | 0.637 | 0.688 | 0.81 | 0.732 | 0.546 | 0.573 | 0.58 | 0.489 | 0.224 | 0.236 | 0.252 | 0.226 | 0.425 | 0.459 | 0.323 | 0.39 | 0.579 | 0.615 | 0.942 | 0.735
SW 900 | 0.839 | 1.09 | 0.853 | 0.75 |  |  |  |  |  |  |  |  | 0.42 | 0.599 | 0.403 | 0.542 | 0.923 | 0.838 | 0.804 | 0.657
NCI-H322M | 0.47 | 0.459 | 0.478 | 0.526 | 0.471 | 0.539 | 0.436 | 0.497 | 0.819 | 0.906 | 1.03 | 1.04 | 0.522 | 0.549 | 0.515 | 0.633 | 0.739 | 0.664 | 0.778 | 0.741
NCI-H2405 | 0.56 | 0.651 | 0.611 | 0.531 | 0.329 | 0.447 | 0.425 | 0.422 | 0.816 | 0.854 | 0.805 | 0.725 | 0.665 | 0.794 | 0.641 | 0.5 | 0.882 | 0.832 | 0.765 | 0.524
NCI-H1563 |  |  |  |  | 0.631 | 0.657 | 0.627 | 0.637 | 0.871 | 0.948 | 0.88 | 0.757 |  |  |  |  |  |  |  | 
